Assay results as given in patent publication US9586951B2 (FUJIFILM Corporation, priority 2013, dated 2017).

Target: T1, ATM (Homo sapiens, UniProt Q13315)
T1 construct: detecting phosphorylation of Chk2 in a human non-small cell lung cancer cell line NCI-H460 (ATCC company); host or cells: NCI-H460 human non-small cell lung cancer cells
Test: ATM inhibition test (phosphorylation of Chk2 generated by ionizing radiation, AlphaScreen SureFire)
Type: cell-based
Conditions: phosphorylated Chk2 in NCI-H460 cells, ionizing radiation 8Gy, 1 hour after test compound treatment; read-out: ATM inhibitory activity
Summary of the method: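 Phosphorylated Chk2 read by AlphaScreen SureFire in human non-small cell lung cancer NCI-H460 cells, 1 hour after 8Gy ionizing radiation at 37° C. Compound added 1 hour before irradiation. Percent inhibition normalised between irradiated and non-irradiated drug-untreated signals.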

T1 sequence (Q13315 whole entry): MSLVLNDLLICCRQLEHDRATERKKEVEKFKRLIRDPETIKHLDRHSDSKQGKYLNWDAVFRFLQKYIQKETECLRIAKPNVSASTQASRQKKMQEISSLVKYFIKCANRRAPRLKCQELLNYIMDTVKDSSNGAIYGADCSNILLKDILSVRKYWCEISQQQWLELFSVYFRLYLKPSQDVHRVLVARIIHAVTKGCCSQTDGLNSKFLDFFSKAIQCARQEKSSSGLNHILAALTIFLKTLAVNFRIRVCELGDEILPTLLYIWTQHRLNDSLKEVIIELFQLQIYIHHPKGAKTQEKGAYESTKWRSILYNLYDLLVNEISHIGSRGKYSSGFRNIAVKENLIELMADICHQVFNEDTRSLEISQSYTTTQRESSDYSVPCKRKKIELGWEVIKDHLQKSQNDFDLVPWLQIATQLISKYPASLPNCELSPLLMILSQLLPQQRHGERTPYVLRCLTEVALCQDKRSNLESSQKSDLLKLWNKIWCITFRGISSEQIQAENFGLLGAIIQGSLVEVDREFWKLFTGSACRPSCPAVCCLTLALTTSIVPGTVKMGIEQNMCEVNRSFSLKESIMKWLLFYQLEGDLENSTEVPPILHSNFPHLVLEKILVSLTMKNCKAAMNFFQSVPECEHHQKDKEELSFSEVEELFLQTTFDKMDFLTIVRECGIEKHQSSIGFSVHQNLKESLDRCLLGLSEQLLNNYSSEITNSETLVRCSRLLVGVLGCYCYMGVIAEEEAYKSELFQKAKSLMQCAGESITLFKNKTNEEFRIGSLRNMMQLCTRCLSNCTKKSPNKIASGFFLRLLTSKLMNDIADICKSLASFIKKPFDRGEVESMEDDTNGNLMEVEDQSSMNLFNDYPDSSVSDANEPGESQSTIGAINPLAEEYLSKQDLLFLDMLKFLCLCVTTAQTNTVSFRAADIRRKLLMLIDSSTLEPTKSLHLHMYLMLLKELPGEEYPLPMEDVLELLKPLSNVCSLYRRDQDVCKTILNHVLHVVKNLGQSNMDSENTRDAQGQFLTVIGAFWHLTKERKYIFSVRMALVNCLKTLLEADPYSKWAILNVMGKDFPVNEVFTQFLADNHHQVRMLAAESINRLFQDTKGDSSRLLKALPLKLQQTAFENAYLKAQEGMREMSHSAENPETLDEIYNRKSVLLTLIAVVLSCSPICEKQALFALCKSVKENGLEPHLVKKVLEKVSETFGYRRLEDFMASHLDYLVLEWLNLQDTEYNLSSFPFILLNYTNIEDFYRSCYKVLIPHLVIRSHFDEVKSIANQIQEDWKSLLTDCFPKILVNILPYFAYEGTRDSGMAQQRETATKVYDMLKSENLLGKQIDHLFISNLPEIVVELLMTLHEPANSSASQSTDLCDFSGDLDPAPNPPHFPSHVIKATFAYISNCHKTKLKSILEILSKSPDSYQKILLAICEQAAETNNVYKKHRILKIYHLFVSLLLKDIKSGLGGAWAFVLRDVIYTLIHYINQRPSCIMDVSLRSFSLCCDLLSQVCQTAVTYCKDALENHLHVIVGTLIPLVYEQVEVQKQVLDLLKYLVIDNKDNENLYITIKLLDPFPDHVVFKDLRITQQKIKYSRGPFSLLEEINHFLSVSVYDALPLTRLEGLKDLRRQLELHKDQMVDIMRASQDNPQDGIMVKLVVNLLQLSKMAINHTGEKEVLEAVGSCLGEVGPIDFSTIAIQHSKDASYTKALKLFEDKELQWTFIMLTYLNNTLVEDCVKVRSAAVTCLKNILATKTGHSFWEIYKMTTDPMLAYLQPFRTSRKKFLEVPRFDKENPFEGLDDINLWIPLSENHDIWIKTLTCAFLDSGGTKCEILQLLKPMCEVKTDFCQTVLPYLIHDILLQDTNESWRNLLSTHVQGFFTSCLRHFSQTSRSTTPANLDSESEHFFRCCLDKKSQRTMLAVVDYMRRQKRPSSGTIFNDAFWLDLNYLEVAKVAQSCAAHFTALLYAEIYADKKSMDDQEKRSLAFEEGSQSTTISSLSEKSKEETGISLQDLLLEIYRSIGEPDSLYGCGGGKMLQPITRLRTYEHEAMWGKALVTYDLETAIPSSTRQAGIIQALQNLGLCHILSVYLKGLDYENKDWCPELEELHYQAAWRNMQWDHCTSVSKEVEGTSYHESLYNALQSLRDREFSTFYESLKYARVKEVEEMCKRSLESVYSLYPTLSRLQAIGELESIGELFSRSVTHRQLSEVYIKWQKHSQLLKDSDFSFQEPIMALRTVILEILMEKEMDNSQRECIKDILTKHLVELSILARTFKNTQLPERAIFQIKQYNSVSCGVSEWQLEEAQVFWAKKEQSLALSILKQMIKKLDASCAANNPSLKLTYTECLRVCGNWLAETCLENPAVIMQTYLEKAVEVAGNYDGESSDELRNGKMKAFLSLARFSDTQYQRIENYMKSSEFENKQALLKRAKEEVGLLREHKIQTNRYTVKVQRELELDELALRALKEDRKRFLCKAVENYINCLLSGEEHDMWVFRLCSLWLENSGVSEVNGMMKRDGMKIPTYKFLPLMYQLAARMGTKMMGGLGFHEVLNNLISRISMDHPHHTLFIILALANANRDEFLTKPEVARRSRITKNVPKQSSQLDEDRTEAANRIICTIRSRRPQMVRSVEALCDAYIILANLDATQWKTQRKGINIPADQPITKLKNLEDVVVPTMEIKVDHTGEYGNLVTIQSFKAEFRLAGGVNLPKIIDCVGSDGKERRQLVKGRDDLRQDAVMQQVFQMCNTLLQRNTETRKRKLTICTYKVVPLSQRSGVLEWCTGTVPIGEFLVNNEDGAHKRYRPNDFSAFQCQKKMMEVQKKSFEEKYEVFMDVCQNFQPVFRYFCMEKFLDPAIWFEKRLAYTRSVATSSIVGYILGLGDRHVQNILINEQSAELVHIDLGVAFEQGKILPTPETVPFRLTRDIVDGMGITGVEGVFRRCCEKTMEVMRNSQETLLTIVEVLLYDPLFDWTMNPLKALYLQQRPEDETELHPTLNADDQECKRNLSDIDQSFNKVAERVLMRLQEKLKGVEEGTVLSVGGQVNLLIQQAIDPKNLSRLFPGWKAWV

| Structure (SMILES) | IC50 [nM] |
| --- | --- |
| CN(C)C(=O)Nc1ncc(CNc2ccc3c(c2)Sc2cccc(-c4cc(N5CCOCC5)cc(=O)[nH]4)c2S3)cn1 [Example 1-12-47] | 100 to 500 |
| Cc1cccc(C(CO)Nc2ccc3c(c2)Cc2cccc(-c4cc(N5CCOCC5)cc(=O)[nH]4)c2O3)n1 (racemic) [Example 2-14-38, 6-(7-((2-Hydroxy-1-(6-methylpyridin-2-yl)ethyl)amino)-9H-xanthen-4-yl)-4-morpholino pyridin-2 (1H)-one] | 100 to 500 |
| CNCCC(Nc1ccc2c(c1)Sc1cccc(-c3cc(N4CCOCC4)cc(=O)[nH]3)c1S2)c1cccc(C)n1 (centres unmarked) [Example 1-20-12, 6-(7-((3-(Methylamino)-1 (6-methyl pyridin-2-yl)propyl)amino)thianthren-1-yl)-4-morpholino pyridin-2 (1H)-one] | 100 to 500 |
| CC(CN1CCN(Cc2cccnc2)CC1)Nc1ccc2c(c1)Sc1cccc(-c3cc(N4CCOCC4)cc(=O)[nH]3)c1S2 (centres unmarked) [Example 1-15-3, 4-Morpholino-6-(7-((1-(4-(pyridin-3-ylmethyl)piperazin-1-yl)propan-2-yl)amino)thianthren-1-yl)pyridin-2(1H)-one] | 100 to 500 |
| O=c1cc(N2CCOCC2)cc(-c2cccc3c2Sc2ccc(NCc4ccsc4)cc2S3)[nH]1 [Example 1-12-1, 4-morpholino-6-(7-((thiophen-3-ylmethyl)amino)thianthren-1-yl)pyridin-2(1H)-one] | 100 to 500 |
| O=c1cc(N2CCOCC2)cc(-c2ccc(F)c3c2Oc2ccc(NCc4cccc(Cl)n4)cc2C3)[nH]1 [Example 2-44-1, 6-(7-(((6-Chloropyridin-2-yl)methyl)amino)-1-fluoro-9H-xanthen-4-yl)-4-morpholinopyridin-2(1H)-one] | 100 to 500 |
| CC(C)(C)OC(=O)N1CCC(Nc2ccc3c(c2)Cc2cccc(-c4cc(N5CCOCC5)cc(=O)[nH]4)c2O3)CC1 [Example 2-3-12, tert-Butyl 4-((5-(4-morpholino-6-oxo-1,6-dihydropyridin-2-yl)-9H-xanthen-2-yl)amino) piperidine-1-carboxylate] | 100 to 500 |
| Cc1cccc(CCN2CCC(Nc3ccc4c(c3)Cc3cccc(-c5cc(N6CCOCC6)cc(=O)[nH]5)c3O4)CC2)c1 [Example 2-30-8, 6-(7-((1-(3-Methylphenethyl)piperidin-4-yl)amino)-9H-xanthen-4-yl)-4-morpholino pyridin-2 (1H)-one] | 500 to 2000 |
| O=c1cc(N2CCOCC2)cc(-c2cccc3c2Sc2ccc(NCc4ccno4)cc2C3)[nH]1 [Example 3-6, 6-(7-((isoxazol-5-ylmethyl)amino)-9H-thioxanthen-4-yl)-4-morpholinopyridin-2(1H)-one] | 500 to 2000 |
| O=C1CCN1c1cncc(CNc2ccc3c(c2)Cc2cccc(-c4cc(N5CCOCC5)cc(=O)[nH]4)c2O3)c1 [Example 2-2-70, 4-Morpholino-6-(7-(((5-(2-oxoazetidin-1-yl)pyridin-3-yl)methyl)amino)-9H-xanthen-4-yl)pyridin-2(1H)-one] | 100 to 500 |
| O=c1cc(N2CCOCC2)cc(-c2cccc3c2Oc2ccc(NCc4nccs4)cc2C3)[nH]1 [Example 2-14-31, 4-Morpholino-6-(7-((thiazol-2-ylmethyl)amino)-9H-xanthen-4-yl) pyridin-2(1H)-one] | 100 to 500 |
| N#CCC(CN1CCOCC1)Nc1ccc2c(c1)Sc1cccc(-c3cc(N4CCOCC4)cc(=O)[nH]3)c1S2 (centres unmarked) [Example 9-2, 4-Morpholino-3-((6-(4-morpholino-6-oxo-1,6-dihydropyridin-2-yl)thianthren-2-yl)amino)butanenitrile] | 100 to 500 |
| CC(C)Oc1cncc(CNc2ccc3c(c2)Cc2cccc(-c4cc(N5CCOCC5)cc(=O)[nH]4)c2O3)c1 [Example 2-2-65, 6-(7-(((5-Isopropoxypyridin-3-yl)methyl)amino)-9H-xanthen-4-yl)-4-morpholino pyridin-2(1H)-one] | 100 to 500 |
| Nc1ccc2c(c1)CCc1cccc(-c3cc(N4CCOCC4)cc(=O)[nH]3)c1O2 [Example 2-50, 6-(8-Amino-10,11-dihydrodibenz[b,f]oxepin-4-yl)-4-morpholinopyridin-2(1H)-one] | 500 to 2000 |
| CC(Nc1ccc2c(c1)Cc1cccc(-c3cc(N4CCOCC4)cc(=O)[nH]3)c1O2)c1cccnc1 (racemic) [Example 2-11-1, 4-morpholino-6-(7-((1-(pyridin-3-yl)ethyl)amino)-9H-xanthen-4-yl)pyridin-2(1H)-one] | 100 to 500 |
| O=c1cc(N2CCOCC2)cc(-c2cc(F)cc3c2Oc2ccc(NCc4cccc(Cl)n4)cc2C3)[nH]1 [Example 2-48-2, 6-(7-(((6-Chloropyridin-2-yl)methyl)amino)-2-fluoro-9H-xanthen-4-yl)-4-morpholinopyridin-2(1H)-one] | 100 to 500 |
| CC(Nc1ccc2c(c1)Sc1cccc(-c3cc(N4CCOCC4)cc(=O)[nH]3)c1S2)c1nccc(CO)n1 (centres unmarked) [Example 1-12-86, 6-(7-((1-(4-(Hydroxymethyl)pyrimidin-2-yl)ethyl)amino)thianthren-1-yl)-4-morpholino pyridin-2(1H)-one] | 100 to 500 |
| CC(Nc1ccc2c(c1)Cc1cccc(-c3cc(N4CCOCC4)cc(=O)[nH]3)c1O2)c1cncc(F)c1 (centres unmarked) [Example 2-14-29, 6-(7-((1-(5-Fluoropyridin-3-yl)ethyl)amino)-9H-xanthan-4-yl)-4-morpholino pyridin-2(1H)-one] | 100 to 500 |
| O=c1cc(N2CCOCC2)cc(-c2cccc3c2Sc2ccc(NCCc4cccnc4)cc2S3)[nH]1 [Example 1-5, 4-morpholino-6-(7-((2-(pyridin-3-yl)ethyl)amino)thianthren-1-yl)pyridin-2(1H)-one] | 100 to 500 |
| CC(Nc1ccc2c(c1)Sc1cccc(-c3cc(N4CCOCC4)cc(=O)[nH]3)c1S2)[C@H](C)N1CCOCC1 (some centres unmarked) [Example 1-21-5, 6-(7-(((3 S)-3-morpholinobutan-2-yl)amino)thianthren-1-yl)-4-morpholinopyridin-2(1H)-one] | 100 to 500 |
| CN1CCN(CCNc2ccc3c(c2)Cc2cccc(-c4cc(N5CCOCC5)cc(=O)[nH]4)c2S3)CC1 [Example 3-4-3, 6-(7-((2-(4-Methylpiperazin-1-yl)ethyl)amino)-9H-thioxanthen-4-yl)-4-morpholino pyridin-2 (1H)-one] | 500 to 2000 |
| CCOC(=O)C(C)Nc1ccc2c(c1)Sc1cccc(-c3cc(N4CCOCC4)cc(=O)[nH]3)c1S2 (centres unmarked) [Example 1-12-55, Ethyl 2-((6-(4-morpholino-6-oxo-1,6-dihydropyridin-2-yl)thianthren-2-yl)amino) propanoate] | 100 to 500 |
| [N-]=[N+]=NCC(CN1CCOCC1)Nc1ccc2c(c1)Sc1cccc(-c3cc(N4CCOCC4)cc(=O)[nH]3)c1S2 (centres unmarked) [Example 9-1, 6-(7-((1-azide-3-morpholinopropan-2-yl)amino)thianthren-1-yl)-4-morpholinopyridin-2(1H)-one] | 100 to 500 |

Results, then the molecule that gave them:

| IC50 [nM] | Structure (SMILES) |
| --- | --- |
| 100 to 500 | COC1CCN(CCNc2ccc3c(c2)Sc2cccc(-c4cc(N5CCOCC5)cc(=O)[nH]4)c2S3)CC1 [Example 1-10-15, 6-(7-((2-(4-Methoxypiperidin-1-yl)ethyl)amino)thianthren-1-yl)-4-morpholino pyridin-2(1H)-one] |
| 100 to 500 | CN(C)c1nccc(CN2CCC(Nc3ccc4c(c3)Cc3cccc(-c5cc(N6CCOCC6)cc(=O)[nH]5)c3O4)CC2)n1 [Example 2-28-16, 6-(7-((1-((2-(Dimethylamino)pyrimidin-4-yl)methyl)piperidin-4-yl)amino)-9H-xanthen-4-yl)-4-morpholino pyridin-2(1H)-one] |
| 100 to 500 | O=c1cc(N2CCOCC2)cc(-c2cccc3c2Oc2ccc(NCc4cnccc4Cl)cc2S3)[nH]1 [Example 4-4-18] |
| 100 to 500 | CCCCN1CCC(Nc2ccc3c(c2)Cc2cccc(-c4cc(N5CCOCC5)cc(=O)[nH]4)c2O3)C1 (centres unmarked) [Example 2-19-8, 6-(7-((1-Butylpyrrolidin-3-yl)amino)-9H-xanthen-4-yl)-4-morpholinopyridin-2(1H)-one] |
| 100 to 500 | O=c1cc(N2CCOCC2)nc(-c2cccc3c2Oc2ccc(NCc4cc(Cl)ccn4)cc2C3)[nH]1 [Example 2-52-3, 2-(7-(((4-Chloropyridin-2-yl)methyl)amino)-9H-xanthen-4-yl)-6-morpholinopyrimidine-4(3H)-one] |
| 100 to 500 | Cc1csc(CNc2ccc3c(c2)Sc2cccc(-c4cc(N5CCOCC5)cc(=O)[nH]4)c2S3)c1 [Example 1-12-58, 6-(7-(((4-Methylthiophen-2-yl)methyl)amino)thianthren-1-yl)-4-morpholino pyridin-2 (1H)-one] |
| < 100 | O=c1cc(N2CCOCC2)cc(-c2cccc3c2Oc2ccc(NCc4cncc(C5CCCC5)c4)cc2C3)[nH]1 [Example 2-2-66, 6-(7-(((5-Cyclopentylpyridin-3-yl)methyl)amino)-9H-xanthen-4-yl)-4-morpholino pyridin-2(1H)-one] |
| 100 to 500 | O=c1cc(N2CCOCC2)cc(-c2cccc3c2Sc2ccc(NCCN4CCCC4)cc2S3)[nH]1 [Example 1-10-11] |
| 100 to 500 | N#Cc1cccc(CNc2ccc3c(c2)Cc2ccnc(-c4cc(N5CCOCC5)cc(=O)[nH]4)c2O3)n1 [Example 2-41-15, 6-(((1-(4-Morpholino-6-oxo-1,6-dihydropyridin-2-yl)-5H-chromeno[2,3-c]pyridin-7-yl)amino)methyl)picolinonitrile] |
| 100 to 500 | O=c1cc(N2CCOCC2)cc(-c2cccc3c2Oc2ccc(NCc4cccc(Cl)n4)cc2C3)[nH]1 [Example 2-14-2, 6-(7-(((6-Chloropyridin-2-yl)methyl)amino)-9H-xanthen-4-yl)-4-morpholino pyridin-2(1H)-one] |
| < 100 | COCCN1CCCC(Nc2ccc3c(c2)Sc2cccc(-c4cc(N5CCOCC5)cc(=O)[nH]4)c2S3)C1 (centres unmarked) [Example 1-26-2, 6-(7-((1-(2-Methoxyethyl)piperidin-3-yl)amino)thianthren-1-yl)-4-morpholinopyridin-2(1H)-one] |
| < 100 | CC(CN1CC(C)OC(C)C1)Nc1ccc2c(c1)Sc1cccc(-c3cc(N4CCOCC4)cc(=O)[nH]3)c1S2 (centres unmarked) [Example 1-13-11, 6-(7-((1-(2,6-Dimethylmorpholino)propan-2-yl)amino)thianthren-1-yl)-4-morpholino pyridin-2(1H)-one] |
